Test results taken from patent US20240358722A1, “METHODS OF ADMINISTERING FEDRATINIB” (Impact Biomedicines, Inc., priority 2021, published 2024).
Where a name gives a salt, the structure may show the parent alone.

Legend:
[1] = Phase 1 crossover relative bioavailability study, Part 1: fedratinib plasma PK; assay type: in vivo, human; settings: for AUC0-t / Cmax: plasma
Procedure: (§1) An open-label, single-site, 2-part crossover study will be conducted in healthy adult subjects. This study will evaluate the RBA of 400 mg fedratinib when administered orally as contents of capsules dispersed in a nutritional supplement or via NG tube or administered orally as intact capsules with a nutritional supplement as a divided dose (200 mg BID) in comparison to intact capsules with a nutritional supplement. Each study part will consist of a randomized, multiple-sequence, open-label design. The study parts can be run in any order or in parallel. Subjects may participate in 1 part only. Each study part will consist of Screening, a Treatment phase (including baseline), and a Follow-up phone call. There will be a washout period of at least 12 days between each dose of fedratinib.
(§2) Part 1 will consist of a randomized, 2-period, 2-sequence, open-label design. Subjects will be screened for eligibility. Subjects who meet all inclusion criteria and none of the exclusion criteria will return to the study center on Day-1 for protocol-specified assessments and the start of domiciling; subjects will remain domiciled at the study center throughout both study periods.
(§3) On the evening before each dosing, all subjects will begin an overnight fast of at least 10 hours prior to dosing. No food or beverages (except water and any nutritional supplement administered with IP) will be allowed for at least 4 hours after dosing. Water is allowed as desired except for 1 hour before and 1 hour after each dosing. Each dose, with the exception of Treatment 2B, will be administered orally with approximately 240 mL noncarbonated, room temperature water. Dose modifications or interruptions are not permissible in this study.
Each subject will receive the following treatments across 2 study periods: • Treatment 1A=oral administration of a single 400-mg dose of fedratinib (4×100-mg capsules) with a nutritional supplement (reference) • Treatment 1B=oral administration of a single 400-mg dose of fedratinib with contents of 4×100-mg capsules dispersed in a nutritional supplement (test)
(§4) All planned doses will be administered with a commercially available nutritional supplement (e.g., Ensure Plus® or Boost Plus®). The chosen nutritional supplement will be used throughout the study. The volume of nutritional supplement to be administered with each dose will be (e.g., approximately 180 mL).
(§5) Blood samples (approximately 3 mL each) for the measurement of fedratinib concentrations in plasma will collected at the following time points: • Treatment 1A, 1B, 2A and 2B: pre dose (0 hour) and at 0.5, 1, 1.5, 2, 3, 4, 6, 8, 12, 24, 48, 72, 120, 168, 192, and 240 hours post dose. • Treatment 2C: pre dose (0 hour) and at 0.5, 1, 1.5, 2, 3, 4, 6, 8, 12 (pre dose of the second dose), 12.5, 13, 13.5, 14, 15, 16, 18, 24, 48, 72, 120, 168, 192, and 240 hours post dose of the first dose.
(§6) Fedratinib plasma PK concentrations will be measured using a validated liquid chromatography tandem mass spectrometry assay
Fedratinib plasma PK parameters will be calculated using noncompartmental methods. The following key PK parameters will be estimated as allowed by the data: • Maximum observed plasma concentration (Cmax) • Area under the plasma concentration-time curve (AUC) from time zero to the last
To estimate the RBA for Treatments 1B in comparison with Treatment 1A, an ANOVA with treatment, period, and sequence as fixed effects, and subject nested within sequence as a random effect will be performed on the natural log-transformed Cmax, AUC (0-T), and AUC (INF). The geometric means along with ratios of the geometric means (test/reference) and associated 90% confidence intervals will be presented.

[2] = Phase 1 crossover relative bioavailability study, Part 2: fedratinib plasma PK; assay type: in vivo, human; settings: for AUC0-∞: geometric mean, one participant excluded (pAUCe >20%); for AUC0-t / Cmax: n = 30, geometric mean, plasma
Procedure: as §1
as §2, with “Part 2” for “Part 1”, “randomized, 3-period, 6-sequence,” for “randomized, 2-period, 2-sequence,”, “throughout all” for “throughout both”
as §3
Each subject will receive the following treatments across 3 study periods: • Treatment 2A=oral administration of a single 400-mg dose of fedratinib (4×100-mg capsules) with a nutritional supplement (reference) • Treatment 2B=a single 400-mg dose of fedratinib, administered via NG tube as contents from 4×100-mg capsules dispersed into a nutritional supplement (test) • Treatment 2C=oral administration of 400-mg fedratinib with a nutritional supplement, given as a divided dose (i.e., BID [2×100-mg capsules each]) (test)
Prior to administration of Treatment 2B, a nasogastric tube will be placed and an X-ray(s) will be performed to confirm correct placement of the nasogastric tube. Following administration of Treatment 2B, the nasogastric tube will be flushed with a volume of sterile water for irrigation equal to approximately 60 mL. Lidocaine gel or a suitable therapeutic equivalent may be used to reduce participant discomfort during the nasogastric tube insertion procedure. The timing from start of the nasogastric tube placement to dosing will be up to 4 hours. Actual time of dose administration will be referred to as “0 hour.”
as §4, §5, §6
Fedratinib plasma PK parameters will be calculated using noncompartmental methods. […]

[3] = Safety and tolerability in the Phase 1 study; assay type: in vivo, human; settings: healthy adult subjects, fedratinib 400 mg, Parts 1 and 2
Description: During the study, blood samples will be collected at prespecified times for PK. Subject safety will be monitored throughout the study. The study will be conducted in compliance with the International Council on Harmonization (ICH) of Technical Requirements for Registration of Pharmaceuticals for Human Use/Good Clinical Practice (GCP) and applicable regulatory requirements.

[4] = Effect of meals on fedratinib pharmacokinetics; assay type: in vivo, human; settings: high-fat, high-calorie meal (approx. 815 calories, 52% fat) and low-fat, low-calorie meal (approx. 162 calories, 6% fat)
Procedure: (§7) Thus, fedratinib can be taken with or without regard to food. Moreover, the most frequently reported gastrointestinal (GI)-related treatment-emergent adverse events, such as nausea and vomiting, are less frequent in the fed state (62.5% and 16.7%,) than in the fasting state (87.5% and 66.7%) in subjects receiving a 500 mg fedratinib. Therefore, administration in the fed state, i.e., with nutritional supplement can reduce the incidence of nausea and vomiting.

[5] = GI-related treatment-emergent adverse events, fed vs fasting state; assay type: in vivo, human; settings: subjects receiving 500 mg fedratinib
Procedure: as §7

[6] = Population pharmacokinetics analysis of cumulative data from 452 patients; assay type: in vivo, human; settings: age 20 to 95 years, body weight 40 to 135 kg
[7] = system: STAT3/STAT5; settings: patient-derived cell lines expressing JAK2V617F and cells engineered to express WT JAK2 or JAK2V617F; cited from earlier work
[8] = system: patient-derived cell lines expressing JAK2V617F and cells engineered to express WT JAK2 or JAK2V617F; settings: cited from earlier work
[9] = system: JAK2V617F-driven MPNs; settings: mouse models of JAK2V617F-driven MPNs; cited from earlier work
[10] = Treatment 1A: fedratinib 400 mg oral capsules with nutritional supplement, n = 27, geometric mean
[11] = Treatment 1B (dispersed in nutritional supplement) vs Treatment 1A (intact capsules), 400 mg single dose
[12] = Treatment 1B: fedratinib 400 mg dispersed in supplement, oral, n = 27, geometric mean
[13] = Treatment 2A: fedratinib 400 mg oral capsules with nutritional supplement
[14] = Treatment 2B (via NG tube) vs Treatment 2A (capsules orally), 400 mg single dose
[15] = Treatment 2B: fedratinib 400 mg in supplement via NG tube
[16] = Treatment 2C (divided dose) vs Treatment 2A (single dose)
[17] = Treatment 2C: fedratinib 2 × 200 mg capsules, divided dose

Compound: Cc1cnc(Nc2ccc(OCCN3CCCC3)cc2)nc1Nc1cccc(S(=O)(=O)NC(C)(C)C)c1 [fedratinib, N-tert-butyl-3-[(5-methyl-2-{[4-(2-pyrrolidin-1-ylethoxy)phenyl]amino}pyrimidin-4-yl)amino] benzenesulfonamide dihydrochloride monohydrate]
- AUC0-∞ ([1]; Treatment 1A: fedratinib 400 mg oral capsules with nutritional supplement, geometric mean, one participant excluded (pAUCe >20%)): 22260 ng·h/mL
- AUC0-t [1, 10]: 20127 ng·h/mL
- Cmax [1, 10]: 1319 ng/mL
- ratio of geometric means (test/reference), AUC (0-T) [1, 11]: 102%
- ratio of geometric means (test/reference), AUC (INF) [1, 11]: 103%
- ratio of geometric means (test/reference), Cmax [1, 11]: 108%
- AUC0-∞ [1, 12]: 22838 ng·h/mL
- AUC0-t [1, 12]: 20598 ng·h/mL
- Cmax [1, 12]: 1425 ng/mL
- differences in exposure to fedratinib compared to a single dose of 4×100 mg capsules administered orally ([2]; 400 mg, healthy adult participants, with nutritional supplement, via NG tube, or divided capsule dose): no significant differences
- AUC0-∞ [2, 13]: 24963 ng·h/mL
- AUC0-t [2, 13]: 22683 ng·h/mL
- Cmax [2, 13]: 1388 ng/mL
- ratio of geometric means between test and reference, AUC (0-T) [2, 14]: 84%
- ratio of geometric means between test and reference, AUC (INF) [2, 14]: 85%
- ratio of geometric means between test and reference, Cmax [2, 14]: 90%
- AUC0-∞ [2, 15]: 21334 ng·h/mL
- AUC0-t [2, 15]: 19111 ng·h/mL
- Cmax [2, 15]: 1246 ng/mL
- ratio of geometric means between test and reference, AUC (0-T) [2, 16]: 84%
- ratio of geometric means between test and reference, AUC (INF) [2, 16]: 85%
- ratio of geometric means between test and reference, Cmax [2, 16]: 46%
- AUC0-∞ [2, 17]: 21304 ng·h/mL
- AUC0-t [2, 17]: 19002 ng·h/mL
- Cmax [2, 17]: 641.4 ng/mL
- safety signals or treatment-emergent serious adverse events [3]: No new safety signals or treatment-emergent serious adverse events were reported
- effect on the pharmacokinetics of fedratinib of administration with a meal [4]: No clinically meaningful effect
- frequency of nausea (GI-related treatment-emergent adverse event) ([5]; fasting state): 87.5%
- frequency of vomiting (GI-related treatment-emergent adverse event) ([5]; fasting state): 66.7%
- frequency of nausea (GI-related treatment-emergent adverse event) ([5]; fed state): 62.5%
- frequency of vomiting (GI-related treatment-emergent adverse event) ([5]; fed state): 16.7%
- effect on fedratinib PK of age, race, sex, body weight, mild or moderate hepatic impairment, mild renal impairment [6]: no clinically meaningful effect
- phosphorylation of STAT3/STAT5 [7]: reduced
- apoptosis [8]: increased
- cell proliferation [8]: inhibited
- disease-associated symptoms, including leukopenia, anemia, splenomegaly, and fibrosis [9]: improved
- phosphorylation of STAT⅗ [9]: blocked
- survival [9]: increased
